The results in this text go back to US20040235071A1, “Methods and compositions for treating cancer using 15986, 2188, 20743, 9148, 9151, 9791, 44252, 14184, 42461, 8204, 7970, 25552, 21657, 26492, 2411, 15088, 1905, 28899, 63380, 33935, 10480, 12686, 25501, 17694, 15701, 53062, 49908, 21612, 38949, 6216, 46863, 9235, 2201, 6985, 9883, 12238, 18057, …” (Millennium Pharmaceuticals, Inc., priority 2002, published 2004).

What all share (format): cell-based, human
One assay deals with 15701 mRNA. The experiment in a line: TaqMan PI3-kinase panel, 15701 mRNA expression. As to conditions: 48 hours. From the text:
In an expanded breast cancer tissue panel, 15701 mRNA was expressed at increased levels (2-131 fold) in 14/15 primary breast tumor samples when compared to 4/4 normal breast tissue samples. In a breast cancer cell model panel, 15701 mRNA was expressed at a 4-fold increased level in transformed, activated H-ras-expressing MCF10AT01 cells vs. normal MCF10A cells, and at a 5-fold increased level in transformed, activated H-ras-expressing MCF10AT3B cells when compared to normal MCF10A cells. 15701 mRNA was expressed in many breast tumor cell lines, including MCF-7, T47D, ZR-75 and MDA-MB-468. In the PI3-kinase panel, 15701 mRNA expression was decreased in MDA-MB-468, MCF-7 and LNCaP cells after 48 hours treatment with the PI3-kinase inhibitor LY294002. 15701 mRNA expression in MDA-MB-468 cells decreased 7-fold after 48 hours with LY294002 (115 uM). […]
This example describes the TaqMan™ procedure. The Taqman™ procedure is a quantitative, reverse transcription PCR-based approach for detecting mRNA. […]
(§1) During the PCR reaction, cleavage of the probe separates the reporter dye and the quencher dye, resulting in increased fluorescence of the reporter. Accumulation of PCR products is detected directly by monitoring the increase in fluorescence of the reporter dye. When the probe is intact, the proximity of the reporter dye to the quencher dye results in suppression of the reporter fluorescence. […]
(In qPCR the cycle at which signal appears reflects the starting amount.)

Another assay has as its system 39228 mRNA. The experiment in a line: TaqMan analysis of the Cox inhibitor study, 39228 mRNA expression in HUVEC. The conditions noted are these: 40-100 mM, 10 h, relative to a vehicle (DMSO) control.
From the text: (§2) This example describes the TaqMan™ procedure. The Taqman™ procedure is a quantitative, reverse transcription PCR-based approach for detecting mRNA. The RT-PCR reaction exploits the 5′ nuclease activity of AmpliTaq Gold™ DNA Polymerase to cleave a TaqMan™ probe during PCR. Briefly, cDNA was generated from the samples of interest, e.g., heart, kidney, liver, skeletal muscle, and various vessels, and used as the starting material for PCR amplification. In addition to the 5′ and 3′ gene-specific primers, a gene-specific oligonucleotide probe (complementary to the region being amplified) was included in the reaction (i.e., the Taqman™ probe). […]
as §1

The subject of a further assay is 2201. The assay can be described thus: Breast cancer cell model panel, 2201 in MCF10A cells. The conditions noted are these: 8 hour treatment, 10 ng/ml. As to the method: In a breast cancer cell model panel, 2201 is increased 3-fold after an 8 hour treatment of MCF10A cells with 10 ng/ml EGF.
as §2, §1

The subject of another assay is 20743 mRNA. The assay can be described thus: Breast cancer cell model panel, 20743 mRNA expression in MCF10A cells. As to the method:
On a breast cancer cell model panel, 20743 mRNA expression in MCF10A cells was increased 4-fold by 8 hrs treatment of 10 ng/ml EGF and was increased 3-fold by 3 hrs treatment with 10 nM IGF1.
as §2, §1

On to `O=c1cc(N2CCOCC2)oc2c(-c3ccccc3)cccc12` [LY294002], for which the “15701 mRNA expression decrease” value in the assay with 15701 mRNA (MCF-7 cells, 30 uM) came to 16 fold; in the assay on 15701 mRNA (MDA-MB-468 cells, 115 uM), 7 fold.
Turning to `CS(=O)(=O)Nc1ccc([N+](=O)[O-])cc1OC1CCCCC1` [NS398], the “39228 mRNA expression” value with 39228 mRNA is on record as “increased”.
Still for that read-out and setting: then `CC1=C(CC(=O)O)c2cc(F)ccc2/C1=C\c1ccc([S+](C)[O-])cc1` (stereo not shown) [Sulindac], with “increased”.
In turn, “EGF: epidermal growth factor (NSDSECPLSHDGYCLHDGVCMYIEALDKYACNCVVGYIGERCQYRDLKWWELR; UniProt P01133 971-1023, looked up)” displayed a 2201 increase with 2201 of 3 fold. Besides, the “20743 mRNA expression increase” value in the assay on 20743 mRNA (8 hrs treatment, 10 ng/ml) is 4 fold.
On to “IGF1: growth factor used to treat MCF10A cells”, for which the “20743 mRNA expression increase” value with 20743 mRNA (3 hrs treatment, 10 nM) amounted to 3 fold.
